From PubChem BioAssay AID2252 (Southern Research Specialized Biocontainment Screening …, 2010)

These compounds were tested on THP-1 viability, CellTiter-Glo luminescence, 72 h (assay: PubChem AID 2252).

`O=C(CN1C2=NCCCN2c2ccccc21)c1ccc(Br)s1` and `O=C(CCN1CCN(C(=O)c2ccccc2)CC1)c1ccc(Br)cc1` are within 1.5-fold of each other in EC50: 41.9 µM for the first, 40.5 µM for the second.

Compared with `COc1ccc(/C=N/Nc2cc(C)nc3ccccc23)cc1`, `COc1ccc(/C=C/c2cc(-c3ccc(C)cc3)o[n+]2C)cc1` is 5.5-fold lower in EC50: 7.03 µM for the first, 1.27 µM for the second.

Going from `CC(=O)NC(c1cccc([N+](=O)[O-])c1)c1ccc2cccnc2c1O` (stereo not drawn) to `O=C(CSc1ccccn1)N/N=C/c1cc([N+](=O)[O-])ccc1O`, the EC50 rises from 0.47 µM to 21.5 µM (46-fold).

Going from `CCCCCSc1cc(OC)c(CCNC)cc1OC` to `C=CCc1cc(Cl)ccc1OCCCNCCO`, the EC50 rises from 13.9 µM to 43.1 µM (3.1-fold). The first is the more potent here.

Going from `CC(C)[C@H](NC(=O)c1ccccc1Cl)C(=O)Nc1nc(-c2ccccn2)cs1` to `O=C(Nc1cccc(NC(=O)c2ccccc2Cl)c1)c1ccc([N+](=O)[O-])o1`, the EC50 falls from 6.18 µM to 2.11 µM (2.9-fold). The second is the more potent here.

`O=c1c(O)cccc2cc(O)c(O)c(O)c12` and `C[C@H]1c2cccc(O)c2C(O)=C2C(=O)[C@]3(O)C(O)=C(C(N)=O)C(=O)[C@@H](N(C)C)C3[C@@H](O)C21` (stereo partly drawn) are within 1.5-fold of each other in EC50: 24.2 µM for the first, 27.5 µM for the second.

Going from `CNc1ccc(SC#N)cc1` to `CC(C)(C)c1ccc(NC(=O)NCc2ccco2)cc1`, the EC50 falls from 33.7 µM to 13.3 µM (2.5-fold). The second is the more potent here.

Going from `Nc1c(Cl)ncnc1N/N=C/c1ccccn1` to `O=C(N/N=C/c1cc(Cl)ccc1O)c1ccncc1`, the EC50 rises from 0.36 µM to 6.13 µM (17-fold). The first is the more potent here.

Compared with `COC(=O)C1=C(C)N(Cc2ccccc2)C(=NCc2cccc(C(F)(F)F)c2)N[C@H]1c1cccc(F)c1`, `COc1cc(CNCCc2ccccc2)cc(Cl)c1OCc1ccccc1` is 3.1-fold higher in EC50: 5.3 µM for the first, 16.6 µM for the second.

Going from `Oc1[nH]c2ccccc2c1N=NC(=S)N1CCOCC1` to `O=C(CCN1CCN(c2ccccc2)CC1)N/N=C/c1ccc([N+](=O)[O-])o1`, the EC50 rises from 2.48 µM to 43.9 µM (18-fold).

Compared with `O=C(Nc1nnc(C(F)(F)F)s1)c1ccc(Br)s1`, `CCC(C)(c1ccc(C(=O)OC)s1)c1ccc(C(=O)OC)s1` is 2.2-fold higher in EC50: 22.2 µM for the first, 49.7 µM for the second. The first is the more potent here.

Going from `CN(C)c1ccc(/C=C/c2ccc3ccccc3[n+]2C)cc1` to `CC[n+]1c(/C=C/C=C/c2ccc(N(C)C)cc2)sc2ccccc21`, the EC50 rises from 0.71 µM to 1.43 µM (2-fold).

Compared with `O=C(NC(=S)NNC(=O)c1cnccn1)c1ccc(F)cc1`, `CCCOc1ccc(C(=O)NNC(=S)NC(=O)c2ccco2)cc1` is 3-fold higher in EC50: 5.51 µM for the first, 16.8 µM for the second. The first is the more potent here.

First: COc1ccc(N2CC(C(=O)N/N=C/c3cc([N+](=O)[O-])ccc3O)CC2=O)cc1 (stereo not drawn)
Second: O=C(N/N=C/c1cc(Br)ccc1O)c1ccncc1
The EC50 of the first is 3.5-fold higher: 17.7 µM for the first, 5.06 µM for the second.

Going from `CC(C)(C)c1nc(SCC(=O)NCc2ccco2)c2ccccc2n1` to `CC(Nc1nc(N2CCCC2)nc2ccccc12)c1ccccc1` (stereo not drawn), the EC50 falls from 30 µM to 9.31 µM (3.2-fold). The second is the more potent here.

Compared with `CS(=O)(=O)c1ccc([C@@H](O)[C@@H](CF)NC(=O)C(Cl)Cl)cc1`, `CC(=O)NCc1ccc(C(=O)CCl)cc1` is higher in EC50: under 0.1 µM for the first, 33.3 µM for the second.

Compared with `CCN(CCCNC(=O)c1cn(CC)c2ccc(S(=O)(=O)N(C)C)cc2c1=O)c1cccc(C)c1`, `CCN(CCNCC(O)COc1ccccc1C(C)C)c1cccc(C)c1` (stereo not drawn) is 3.2-fold lower in EC50: 34.8 µM for the first, 11 µM for the second.

Going from `N#C/C(N=Nc1ccccc1O)=N\Nc1ccccc1O` to `C/C(=N\NC(=O)c1ccc(CN2CCc3ccccc3C2)cc1)c1ccccc1O`, the EC50 rises from 4.42 µM to 7.89 µM (1.8-fold).

First: CC1=C([N+](=O)[O-])C(c2cccc(Br)c2)C2=C(N1)c1ccccc1C2=O (stereo not drawn)
Second: COc1ccc(C(C[N+](=O)[O-])C2(c3ccc(OC)c(OC)c3)C(=O)c3ccccc3C2=O)cc1 (stereo not drawn)
The EC50 of the first is 3.2-fold lower: 3.1 µM for the first, 9.85 µM for the second. The first is the more potent here.

`CCc1ccc(NC(=O)C[n+]2cc(-c3ccc(C)cc3)n3c2CCC3)cc1` and `O=C(Nc1ccc(Cc2ccncc2)cc1)c1ccc([N+](=O)[O-])o1` are within 1.5-fold of each other in EC50: 5.71 µM for the first, 4.02 µM for the second.

Going from `CCOC(=O)N/N=C(/C)c1ccc([N+](=O)[O-])o1` to `COc1cc(/C=C/[N+](=O)[O-])ccc1O`, the EC50 falls from 34.2 µM to 12.1 µM (2.8-fold).

`CCc1nc(N)nc(N)c1-c1ccc(Cl)cc1` and `OC(CNCC1CCCO1)Cn1c2ccc(Cl)cc2c2cc(Cl)ccc21` (stereo not drawn) are within 1.5-fold of each other in EC50: 10.5 µM for the first, 12.9 µM for the second.

Going from `NC1=NC2(CCCCC2)N=C(Nc2ccc(Br)cc2)N1` to `Oc1c(Cl)cc(CN2CCCCC2)c2cccnc12`, the EC50 falls from 2.39 µM to 0.71 µM (3.4-fold). The second is the more potent here.

Compared with `O=C(NCc1cccnc1)c1ccc(COc2ccc(Cl)cc2)cc1`, `CN(Cc1ccccc1)CC(O)COc1ccc(CNCc2ccc(Cl)s2)cc1` (stereo not drawn) is 2-fold lower in EC50: 43.8 µM for the first, 22.2 µM for the second.

First: Cn1cc(C(=O)N/N=C/C(Br)=C/c2ccccc2)ccc1=O
Second: O=C(N/N=C/c1cccc(OCc2ccccc2)c1)c1cccs1
The EC50 of the first is 2.8-fold lower: 14.5 µM for the first, 40.4 µM for the second.

First: OC(CNCCc1ccccc1)COc1ccc(OCC(O)CNCCc2ccccc2)cc1 (stereo not drawn)
Second: COc1ccc(/C=C/c2cc[n+](C(=O)Cc3ccccc3)cc2)cc1
The EC50 of the first is 1.9-fold higher: 7.35 µM for the first, 3.92 µM for the second.

Going from `COc1ccc(Cc2nnc(N/N=C/c3ccc(O)cc3)[nH]c2=O)cc1OC` to `CCOC(=O)c1ccccc1-n1c(C)cc(C2N=C(N)Nc3nc4ccccc4n32)c1C` (stereo not drawn), the EC50 rises from 0.57 µM to 6.21 µM (11-fold).

Going from `C#CCOCCOCCOCCNc1nc(N2CCN(C(=O)CCCCCCCCCCNC(=O)[C@H](CO)n3cc(CCCCCN)nn3)CC2)nc(N2CCN(C(=O)CCCCCCCCCCNC(=O)[C@H](CCCN=C(N)N)n3cc(C[C@@H](C)CC)nn3)CC2)n1` to `CCCCC(CC)CN=C(N)NC(N)=NCCCCCCN=C(N)NC(N)=NCC(CC)CCCC` (stereo not drawn), the EC50 falls from 6.31 µM to 0.83 µM (7.6-fold).

`COc1ccc2[nH]cc(C(=O)CCl)c2c1` and `CCCCOc1ccc(CN=C(N)N)cc1Cl` are within 1.5-fold of each other in EC50: 7.78 µM for the first, 10.1 µM for the second.

`CCn1cc(C(=O)NCc2ccc3c(c2)OCO3)c(=O)c2cc(F)c(N3CCN(C(=O)c4ccco4)CC3)cc21` and `Cc1cc2oc(=O)cc(CN3CCN(C/C=C/c4ccccc4)CC3)c2cc1O` are within 1.5-fold of each other in EC50: 19.9 µM for the first, 18.6 µM for the second.

Going from `COc1ccccc1Nc1nc(NCC2CCCO2)c2ccccc2n1` (stereo not drawn) to `CCOc1ccccc1-c1cc(-c2ccccc2)nc2c1c(=O)n(C)c(=O)n2C`, the EC50 falls from 14.1 µM to under 0.1 µM.

Going from `Cc1cccn2c(=O)c(C=O)c(Cl)nc12` to `O=C(/C=C/c1ccc(Cl)cc1)NCCCn1ccnc1`, the EC50 falls from 26.8 µM to under 0.1 µM. The second is the more potent here.

Going from `CNC[C@H](CC1CCCCC1)NC[C@H](Cc1ccccc1)NCCC12CC3CC(CC(C3)C1)C2` to `CNCCCC1Sc2ccccc2Oc2ccccc21` (stereo not drawn), the EC50 rises from 3.49 µM to 23.6 µM (6.8-fold).

Compared with `CO[C@H]1C=CO[C@@]2(C)Oc3c(C)c(O)c4c(O)c(c5c(c4c3C2=O)NC2(CCN(CC(C)C)CC2)N=5)=NC(=O)C(C)=CC=C[C@H](C)[C@H](O)[C@@H](C)[C@@H](O)[C@@H](C)[C@H](OC(C)=O)[C@@H]1C`, `COC(=O)C1C(O)C(C)C(O)C(C)/C=C\C=C(/C)C(=O)Nc2c(C)c(OC(C)=O)c3c(c2O)C(=O)C(C)=C2OCOC(=C23)/C(C)=C/C(C)(O)C(O)C(C)C1O` (stereo not drawn) is lower in EC50: 26 µM for the first, under 0.1 µM for the second.

First: Cc1nn(-c2ccccc2)c(C)c1/C=N/n1c(-c2ccc(C(C)(C)C)cc2)n[nH]c1=S
Second: CC[n+]1c(/C=C/N(C)c2ccccc2)n(-c2ccccc2)c2ccc(-c3nc4ccccc4s3)cc21
The EC50 of the first is 73-fold higher: 32.1 µM for the first, 0.44 µM for the second. The second is the more potent here.

Compared with `COC(=O)C1=C(C(=O)OC)SC(=C2C(=S)C(C)(C)N(C(=O)C3CC3)c3ccccc32)S1`, `CN(C)CC/C=C1/c2ccccc2Sc2ccc(Cl)cc21` is 3.1-fold lower in EC50: 30.9 µM for the first, 10.1 µM for the second. The second is the more potent here.

Compared with `Cn1c(CCN2CCN(c3ccccn3)CC2)nc2cc(NC(=O)COc3ccccc3)ccc21`, `C[n+]1c2n(c3ccccc31)N=C(c1ccc(-c3ccccc3)cc1)CS2` is 5.7-fold lower in EC50: 22.1 µM for the first, 3.89 µM for the second. The second is the more potent here.

`C[C@H]1O[C@@H](n2cc(F)c(=O)[nH]c2=O)[C@H](O)[C@@H]1O` and `Nc1ncn([C@@H]2O[C@H](CO)[C@@H](O)[C@H]2O)c(=O)n1` are within 1.5-fold of each other in EC50: 26.7 µM for the first, 19.7 µM for the second.

Compared with `Cc1ccc(C[n+]2c(-c3ccc(C)cc3)cc(-c3ccc(C)cc3)cc2-c2ccc(C)cc2)cc1`, `Clc1ccc(-c2cc(C3CCNCC3)[nH]n2)c(Cl)c1` is 110-fold higher in EC50: 0.22 µM for the first, 24.3 µM for the second.
